{
  "source": "patent US5741811A",
  "about": "“Polythiophene anti-tumor agents” (Purdue Research Foundation, priority 1996, dated 1998)",
  "key": {"[1]": {"system": "HT29 colon cancer cells", "assay": "NCI human tumor cell line panel growth inhibition", "format": "cell-based", "details": "Homo sapiens, HT-29, read-out: Log10 GI50 (converted)"}, "[2]": {"system": "NCI-H460 lung cancer cells", "assay": "NCI human tumor cell line panel growth inhibition", "format": "cell-based", "details": "Homo sapiens, read-out: Log10 GI50 (converted)"}, "[3]": {"system": "U251 CNS cancer cells", "assay": "NCI human tumor cell line panel growth inhibition", "format": "cell-based", "details": "Homo sapiens, U-251, read-out: Log10 GI50 (converted)"}, "[4]": {"system": "NCI-H23 lung cancer cells", "assay": "NCI human tumor cell line panel growth inhibition", "format": "cell-based", "details": "read-out: Log10 GI50 (converted)"}, "[5]": {"system": "SF-295 CNS cancer cells", "assay": "NCI human tumor cell line panel growth inhibition", "format": "cell-based", "details": "read-out: Log10 GI50 (converted)"}, "[6]": {"system": "HCT-15 colon cancer cells", "assay": "NCI human tumor cell line panel growth inhibition", "format": "cell-based", "details": "Homo sapiens, read-out: Log10 GI50 (converted)"}, "[7]": {"system": "ACHN renal cancer cells", "assay": "NCI human tumor cell line panel growth inhibition", "format": "cell-based", "details": "read-out: Log10 GI50 (converted)"}, "[8]": {"system": "OVCAR-8 ovarian cancer cells", "assay": "NCI human tumor cell line panel growth inhibition", "format": "cell-based", "details": "Homo sapiens, read-out: Log10 GI50 (converted)", "experimental": "(§1) The first screen measures the cytotoxicity against a panel of sixty different human tumor cell lines. This assay provides data regarding the general cytotoxicity of an individual compound.\n(§2) The length of a bar is indicative of differential cytotoxicity against a specific type of tumor cells or tumor panels.\n(§3) The antitumor cytotoxicity of the thiophene compounds tested in the first two in vitro assays was measured by a microculture assay using either 3-(4,5-dimethylthiazol-2-yl)-2,5-diphenyltetrazolium bromide (MTT) or sulforhodamine B (SRB). [M. R. Boyd in \"Principles and Practices of Oncology,\" V. T. DeVita, Jr., S. Hellman and S. A. Rosenberg (Eds.), Vol. 3, PPO Updates, Number 10, 1989.] This assay has an advantage over in vivo assay in that results are obtained within a week as opposed to several months. The assay was carried out in 96-well microtiter plates. The MTT assay is based on the production of a dark blue formazan product by dehydrogenase in the mitochondria of live tumor cells after exposure to drug for 6 days [M. C. Alley, D. A. Scudiero, A. Monks, M. L. Hursey, M. J. Czerwinski, D. L. Fine, B. J. Abbott, J. G. Mayo, R. H. Shoemaker and M. R. Boyd, Cancer Res., 48, 589, 1988.] Thus, only live cells are stained and can be measured at 570 nm. The SRB assay is based on the binding of the anionic group to the basic amino acid residues of cellular proteins after exposure of tumor cells to drug for 2 days [P. Skehan, R. Storeng, D. Scudiero, A. Monks, J. McMahon, D. Vistica, J. T. Warren, H. Bohesch, S. Kenney and M. R. Boyd, J. Nat. Cancer Inst., 82, 1107, 1990.] Thus, the total protein (viability) can be measured at 564 nm."}, "[9]": {"system": "SW-620 colon cancer cells", "assay": "NCI human tumor cell line panel growth inhibition", "format": "cell-based", "details": "Homo sapiens, read-out: Log10 GI50 (converted)", "experimental": "as §1, §2, §3"}, "[10]": {"system": "SN12C renal cancer cells", "assay": "NCI human tumor cell line panel growth inhibition", "format": "cell-based", "details": "read-out: Log10 GI50 (converted)"}, "[11]": {"system": "MALME-3M melanoma cells", "assay": "NCI human tumor cell line panel growth inhibition", "format": "cell-based", "details": "read-out: Log10 GI50 (converted)"}, "[12]": {"system": "T-47D breast cancer cells", "assay": "NCI human tumor cell line panel growth inhibition", "format": "cell-based", "details": "T47D, read-out: Log10 GI50 (converted)", "quoted_text": "The assay was carried out in 96-well microtiter plates. The MTT assay is based on the production of a dark blue formazan product by dehydrogenase in the mitochondria of live tumor cells after exposure to drug for 6 days [M. C. […] The SRB assay is based on the binding of the anionic group to the basic amino acid residues of cellular proteins after exposure of tumor cells to drug for 2 days [P. Skehan, R. Storeng, D. Scudiero, A. Monks, J. McMahon, D. Vistica, J. T. Warren, H. Bohesch, S. Kenney and M. R. Boyd, J. Nat."}, "[13]": {"system": "COLO-205 colon cancer cells", "assay": "NCI human tumor cell line panel growth inhibition", "format": "cell-based", "details": "Homo sapiens; COLO-205, colon cancer; read-out: Log10 GI50 (converted)"}, "[14]": {"system": "NCI-H522 lung cancer cells", "assay": "NCI human tumor cell line panel growth inhibition", "format": "cell-based", "details": "read-out: Log10 GI50 (converted)"}, "[15]": {"system": "HCC-2998 colon cancer cells", "assay": "NCI human tumor cell line panel growth inhibition", "format": "cell-based", "details": "Homo sapiens, read-out: Log10 GI50 (converted)"}, "[16]": {"system": "RXF-393 renal cancer cells", "assay": "NCI human tumor cell line panel growth inhibition", "format": "cell-based", "details": "Homo sapiens, read-out: Log10 GI50 (converted)"}, "[17]": {"system": "HOP-62 lung cancer cells", "assay": "NCI human tumor cell line panel growth inhibition", "format": "cell-based", "details": "Homo sapiens, read-out: Log10 GI50 (converted)"}, "[18]": {"system": "M-14 melanoma cells", "assay": "NCI human tumor cell line panel growth inhibition", "format": "cell-based", "details": "M14, read-out: Log10 GI50 (converted)"}, "[19]": {"system": "UO-31 renal cancer cells", "assay": "NCI human tumor cell line panel growth inhibition", "format": "cell-based", "details": "read-out: Log10 GI50 (converted)"}, "[20]": {"system": "786-0 renal cancer cells", "assay": "NCI human tumor cell line panel growth inhibition", "format": "cell-based", "details": "read-out: Log10 GI50 (converted)"}, "[21]": {"system": "MDA-MB-435 breast cancer cells", "assay": "NCI human tumor cell line panel growth inhibition", "format": "cell-based", "details": "read-out: Log10 GI50 (converted)", "excerpt": "(§4) The cytotoxic activity of the present polythiophene compounds have been measured utilizing three different assays or screens. The first screen measures the cytotoxicity against a panel of sixty different human tumor cell lines. This assay provides data regarding the general cytotoxicity of an individual compound. In particular this type of assay is useful in identifying compounds which have enhanced cytotoxic activity against slow growing tumors as compared to faster growing tumor cells such as leukemia tumor cell lines. The identification of such compounds is critical since previously identified antitumor agents have low cytotoxic activity against slower growing tumors. […] The specificity of a cytotoxic compound for tumor cell lines relative to normal cells is an important characteristic of an effective antitumor agent.\nas §2, §3"}, "[22]": {"system": "SK-MEL-5 melanoma cells", "assay": "NCI human tumor cell line panel growth inhibition", "format": "cell-based", "details": "read-out: Log10 GI50 (converted)", "excerpt": "as §4, §2, §3"}, "[23]": {"system": "SK-MEL-28 melanoma cells", "assay": "NCI human tumor cell line panel growth inhibition", "format": "cell-based", "details": "read-out: Log10 GI50 (converted)", "excerpt": "as §4, §2, §3"}, "[24]": {"system": "MCF7/ADR-RES breast cancer cells", "assay": "NCI human tumor cell line panel growth inhibition", "format": "cell-based", "details": "read-out: Log10 GI50 (converted)", "excerpt": "as §4, §2, §3"}, "[25]": {"system": "HS 578T breast cancer cells", "assay": "NCI human tumor cell line panel growth inhibition", "format": "cell-based", "details": "read-out: Log10 GI50 (converted)", "excerpt": "as §4, §2, §3"}, "[26]": {"system": "KM12 colon cancer cells", "assay": "NCI human tumor cell line panel growth inhibition", "format": "cell-based", "details": "Homo sapiens, read-out: Log10 GI50 (converted)", "excerpt": "as §4, §2, §3"}, "[27]": {"system": "MDA-N breast cancer cells", "assay": "NCI human tumor cell line panel growth inhibition", "format": "cell-based", "details": "read-out: Log10 GI50 (converted)", "excerpt": "as §4, §2, §3"}, "[28]": {"system": "DU-145 prostate cancer cells", "assay": "NCI human tumor cell line panel growth inhibition", "format": "cell-based", "details": "read-out: Log10 GI50 (converted)", "excerpt": "as §4, §2, §3"}, "[29]": {"system": "PC-3 prostate cancer cells", "assay": "NCI human tumor cell line panel growth inhibition", "format": "cell-based", "details": "read-out: Log10 GI50 (converted)", "excerpt": "as §4, §2, §3"}, "[30]": {"system": "BT-549 breast cancer cells", "assay": "NCI human tumor cell line panel growth inhibition", "format": "cell-based", "details": "read-out: Log10 GI50 (converted)", "excerpt": "as §4, §2, §3"}, "[31]": {"system": "MCF7 breast cancer cells", "assay": "NCI human tumor cell line panel growth inhibition", "format": "cell-based", "details": "read-out: Log10 GI50 (converted)", "excerpt": "as §4, §2, §3"}, "[32]": {"system": "TK-10 renal cancer cells", "assay": "NCI human tumor cell line panel growth inhibition", "format": "cell-based", "details": "Homo sapiens, read-out: Log10 GI50 (converted)"}, "[33]": {"system": "NCI-H226 lung cancer cells", "assay": "NCI human tumor cell line panel growth inhibition", "format": "cell-based", "details": "Homo sapiens, read-out: Log10 GI50 (converted)"}, "[34]": {"system": "IGROV-1 ovarian cancer cells", "assay": "NCI human tumor cell line panel growth inhibition", "format": "cell-based", "details": "Homo sapiens, read-out: Log10 GI50 (converted)"}, "[35]": {"details": "water"}},
  "data": [
    {"smiles": "OCc1cc(-c2ccc(-c3cccs3)s2)sc1CO", "values": [
      {"measurement": "GI50", "setting": "[1]", "result": 18.6, "unit": "µM"},
      {"measurement": "GI50", "setting": "[2]", "result": 5.62, "unit": "µM"},
      {"measurement": "GI50", "setting": "[3]", "result": 69.2, "unit": "µM"},
      {"measurement": "GI50", "setting": "[4]", "result": 38.9, "unit": "µM"},
      {"measurement": "GI50", "setting": "[5]", "result": 33.9, "unit": "µM"},
      {"measurement": "GI50", "setting": "[6]", "result": 28.2, "unit": "µM"},
      {"measurement": "GI50", "setting": "[7]", "result": 56.2, "unit": "µM"},
      {"measurement": "GI50", "setting": "[8]", "result": 50.1, "unit": "µM"},
      {"measurement": "GI50", "setting": "[9]", "result": 40.7, "unit": "µM"},
      {"measurement": "GI50", "setting": "[10]", "result": 46.8, "unit": "µM"},
      {"measurement": "GI50", "setting": "[11]", "result": 29.5, "unit": "µM"},
      {"measurement": "GI50", "setting": "[12]", "result": 0.427, "unit": "µM"},
      {"measurement": "GI50", "setting": "[13]", "result": 5.89, "unit": "µM"},
      {"measurement": "GI50", "setting": "[14]", "result": 33.9, "unit": "µM"},
      {"measurement": "GI50", "setting": "[15]", "result": 0.316, "unit": "µM"},
      {"measurement": "GI50", "setting": "[16]", "result": 8.71, "unit": "µM"},
      {"measurement": "GI50", "setting": "[17]", "result": 20, "unit": "µM"},
      {"measurement": "GI50", "setting": "[18]", "result": 51.3, "unit": "µM"},
      {"measurement": "GI50", "setting": "[19]", "result": 64.6, "unit": "µM"},
      {"measurement": "GI50", "setting": "[20]", "result": 52.5, "unit": "µM"},
      {"measurement": "GI50", "setting": "[21]", "result": 15.1, "unit": "µM"},
      {"measurement": "GI50", "setting": "[22]", "result": "> 10", "unit": "µM"},
      {"measurement": "GI50", "setting": "[23]", "result": 39.8, "unit": "µM"},
      {"measurement": "GI50", "setting": "[24]", "result": 57.5, "unit": "µM"},
      {"measurement": "GI50", "setting": "[25]", "result": 52.5, "unit": "µM"},
      {"measurement": "GI50", "setting": "[26]", "result": 16.6, "unit": "µM"},
      {"measurement": "GI50", "setting": "[27]", "result": 5.37, "unit": "µM"},
      {"measurement": "GI50", "setting": "[28]", "result": 55, "unit": "µM"},
      {"measurement": "GI50", "setting": "[29]", "result": 49, "unit": "µM"},
      {"measurement": "GI50", "setting": "[30]", "result": 83.2, "unit": "µM"},
      {"measurement": "GI50", "setting": "[31]", "result": 0.178, "unit": "µM"},
      {"measurement": "GI50", "setting": "[32]", "result": 20.9, "unit": "µM"},
      {"measurement": "GI50", "setting": "[33]", "result": 0.257, "unit": "µM"},
      {"measurement": "GI50", "setting": "[34]", "result": 0.229, "unit": "µM"}
    ]},
    {"smiles": "NCc1ccc(-c2ccc(-c3cccs3)s2)s1", "note": "[NSC Code 652866, aminomethylterthiophene]", "values": [
      {"measurement": "aminomethylterthiophene dissolved by 1 mL of H2O (as cyclodextrin complex)", "setting": "[35]", "result": "up to 77 mg"}
    ]}
  ]
}
